Where two headings read alike, the source gives them in different places.
Columns and labels:
HIV-1 LTR [1] = assay: Tat-activated integrated LTR-CAT reporter assay in HeLa-CD4-LTR cells; assay type: cell-based
Procedure: (§1) Cell lines transfections and assays. Transfections of HeLa cells were performed as previously described (49). HeLa-CD4-LTR (9) cells were grown in DMEM supplemented with 10% FCS and transfected with 20 μg plasmid DNA (prepared using EndoFree plasmid kit, Qiagen, Valencia, Calif.) by calcium phosphate coprecipitation as per manufacturer's instructions (ProFection system, Promega, Madison, Wis.). After 30 minutes at room temperature, the solution was added to the cells (2.5-4×10^5 cells/plate). Twelve hours after transfection, the cells were washed with PBS and fed fresh medium. Forty-eight hours later the cells were harvested, cellular extracts prepared, and CAT assays performed as previously described (49). To control for the effect of transcription factor overexpression on general cellular promoters a reporter construct driven by the beta-actin promoter, pH[…]-actin-luciferase (66), was used in cotransfection and CAT expression normalized for luciferase activity. Other plasmids used have been previously described (2, 49). […] Up to 30 μl of cellular extract (normalized for protein concentration) in a final volume of 130 μl was used for luciferase reactions.
The LTR reporter carried by HeLa-CD4-LTR cell line exists within the native chromatin structure of the genome. […]

HIV-1 LTR [2] = assay: Tat-activated, LTR-driven CAT expression, plasmid-based reporter, transient cotransfection; assay type: cell-based; settings: data not shown
Procedure: as §1

[3] = test system: RCS oligonucleotide (−10 to +27 of HIV-1 LTR); assay type: binding
HIV-1 = settings: HeLa cells cotransfected with pNL4-3 (CXCR4) or pYU-2 (CCR5)
Procedure: For virus production experiments 2×10^4 HeLa cells were transfected with 10 μl of Superfect (Qiagen, Valencia, Calif.) and 2.5-3.0 μg of DNA in a volume of 0.6 ml for 3 hours, washed with PBS, and then grown in 2 ml. Aliquots of culture medium were sampled for detection of HIV-1 p24^gag protein by antigen capture enzyme-linked immunosorbent assay according to the manufacturer's instructions (Coulter Corporation, Hialeah, Fla.).
As these cells support HIV replication but cannot be infected, a measurement of the effect of YY1 on a single round of viral replication can be made.
The influence of YY1 on viral production was assayed by testing of culture supernatant for the presence of the viral protein p24^gag.

Compound	Effect on YY1-mediated repression of integrated LTR-CAT expression (HIV-1 LTR [1]; with YY1 transfection, trichostatin-A added to culture medium (data not shown))	Tat-activated, LTR-driven CAT expression (plasmid-based reporter) (HIV-1 LTR [2])	Complex formation with the RCS in EMSA ([3]; 20 ng to 100 ng added in the presence of 10 ng of LSF)	Complex formation with the RCS in EMSA ([3]; up to 100 ng protein alone)	Tat-activated CAT expression from integrated LTR reporter (HIV-1 LTR [1]; 200 ng pAR-Tat, 2.5 μg CMV expression plasmid, normalized to β-actin-luciferase)	HIV-1 production (p24gag in culture supernatant) (HIV-1)
CC(/C=C/C(=O)NO)=C\[C@@H](C)C(=O)c1ccc(N(C)C)cc1 [trichostatin-A, reference compound]	blocked	–	–	–	–	–
YY1: cellular transcription factor that binds the RCS and inhibits LTR-driven HIV transcription (SEQ ID NO: 3)	–	inhibited Tat-activated, LTR-driven CAT expression	increasing levels of complex formation	did not form a detectable complex	inhibited Tat-activated CAT activity	dose-dependent inhibition

— US20090081183A1, “HIV Transcription Repressor Complex and Compositions and Methods Based Thereon” (priority 1997, published 2009)
